Read-outs that look alike come from different tables or passages of the source.
Assays:
[1] = Pharmacokinetic/toxicokinetic evaluation in dogs; format: in vivo, beagle dogs; details: for Accumulation Ratio: Dose 5 to Dose 1 AUC(0-24), 1.2 mg/kg IV; for Tmax / AUC(0-t) / Cmax / half-life: iv, 1.2 mg/kg; for Tmax: median
Protocol: The study was conducted using three (3) test article and one (1) control article group. The control article was the solution (5% dextrose in water) used to dilute the test article prior to administration and was administered at the same volume as the high dose. The test article dosage levels for this study were approximately 12, 3.8, and 1.2 mg/kg. Test and control articles were administered once by intravenous (IV) infusion over approximately a one hour period on five consecutive days. Blood samples for test article blood level analysis was taken as follows (i.e., pk/tk sampling): approximately 1 mL of blood was taken from three male and three female dogs in the low dose group at approximately 20 minutes and 40 minutes from the start of the infusion, and then at the end of infusion (Time 0) and at 5, 10, 15, and 30 minutes, and 1, 2, 4, 8, 12, and 24 hours from the end of the infusion after the first and fifth doses. Also, prior to and immediately after Dose 1 and after Dose 5 for all animals, and for recovery animals prior to necropsy, approximately 5-10 second ECG tracings in a lead II configuration were obtained. Animals were terminated one (1) or 15 days after the last dose. Blood for hematology and clinical chemistry analysis was drawn pre-dose and prior to euthanasia at termination. Following euthanasia, a necropsy was performed to include collection of major organs for microscopic evaluation.
PK/TK: Blood samples for test article blood level analysis were taken. Approximately 1 mL of blood was taken from three males and three females in the low dose group at approximately 20 minutes and 40 minutes from the start of the infusion, and then at the end of infusion (Time 0) and at 5, 10, 15, and 30 minutes, and 1, 2, 4, 8, 12, and 24 hours from the end of the infusion after the first and fifth dose. Plasma (lithium heparin anticoagulant) samples were prepared and analyzed.

[2] = test system: Chinese Hamster Ovary Cells (CHO); test: In vitro chromosome aberration assay (incl. mitotic index); format: cell-based; details: for % MI 3 HRS + S9 / % MI 20 HRS / % MI: average mitotic index; for % MI: first column (time not given)

For `CN1CCCC1CCNC(=O)c1cn2c3c(c(N4CCC(c5cnccn5)C4)c(F)cc3c1=O)Oc1cc3ccccc3cc1-2` (stereo not drawn) [CX-3543], the AUC(0-inf) ([1]; beagle, dog, plasma, female, 1.2 mg/kg IV infusion, Dose 1, read-out: Mean AUC(0-inf)) was 386 ng·h/mL, the AUC(0-inf) ([1]; beagle, dog, plasma, male, 1.2 mg/kg IV infusion, Dose 1, read-out: Mean AUC(0-inf)) was 317 ng·h/mL and the “Dose 5 to Dose 1 ratio for AUC(0-24)” value ([1]; female) was 1.1. The “AUC(0-inf)” value ([1]; female, Dose 1, 1.2 mg/kg IV, mean) was 386.3 ng·h/mL, the “Accumulation Ratio” value ([1]; female) was 1.1 and the Tmax ([1]; female, beagle, dog, plasma, Dose 1, 1.2 mg/kg IV) was 0.67 h. It also gave a Tmax ([1]; female, beagle, dog, plasma, Dose 5, 1.2 mg/kg IV) of 1 h, an AUC(0-t) ([1]; female, beagle, dog, plasma, female, 1.2 mg/kg IV infusion, Dose 1, read-out: Mean AUC(0-24)) of 381 ng·h/mL and a Cmax ([1]; female, beagle, dog, plasma, female, 1.2 mg/kg IV infusion, Dose 1, read-out: Mean Cmax) of 139 ng/mL. The half-life ([1]; female, beagle, dog, plasma, female, 1.2 mg/kg IV infusion, Dose 1, read-out: mean terminal half-life (converted)) was 3.8 h, the AUC(0-t) ([1]; female, beagle, dog, plasma, female, 1.2 mg/kg once daily, Dose 5, read-out: Mean AUC(0-24)) was 444 ng·h/mL and the Cmax ([1]; female, beagle, dog, plasma, female, 1.2 mg/kg once daily, Dose 5, read-out: mean Cmax) was 145 ng/mL. It also gave a Cmax ([1]; female, beagle, dog, plasma, female, Dose 1, 1.2 mg/kg IV once daily, mean, read-out: Cmax) of 139 ng/mL, a half-life ([1]; female, beagle, dog, plasma, female, Dose 1, 1.2 mg/kg IV, harmonic mean, read-out: T1/2 (converted)) of 3.8 h and an AUC(0-t) ([1]; female, beagle, dog, plasma, female, Dose 1, 1.2 mg/kg IV, mean, read-out: AUC(0-24)) of 381 ng·h/mL. For the same molecule, the Cmax ([1]; female, beagle, dog, plasma, female, Dose 5, 1.2 mg/kg IV once daily for 5 days, mean, read-out: Cmax) was 145 ng/mL, the half-life ([1]; female, beagle, dog, plasma, female, Dose 5, 1.2 mg/kg IV, harmonic mean, read-out: T1/2 (converted)) was 5.2 h and the AUC(0-t) ([1]; female, beagle, dog, plasma, female, Dose 5, 1.2 mg/kg IV, mean, read-out: AUC(0-24)) was 444 ng·h/mL. For the same molecule, the half-life ([1]; female, beagle, dog, plasma, female, Dose 5, read-out: mean terminal half-life (converted)) was 5.2 h, the “Dose 5 to Dose 1 ratio for AUC(0-24)” value ([1]; male) was 1.2 and the “AUC(0-inf)” value ([1]; male, Dose 1, 1.2 mg/kg IV, mean) was 316.9 ng·h/mL. The “Accumulation Ratio” value ([1]; male) was 1.2, the Tmax ([1]; male, beagle, dog, plasma, Dose 1, 1.2 mg/kg IV) was 0.67 h and the Tmax ([1]; male, beagle, dog, plasma, Dose 5, 1.2 mg/kg IV) was 1 h. It also gave an AUC(0-t) ([1]; male, beagle, dog, plasma, male, 1.2 mg/kg IV infusion, Dose 1, read-out: Mean AUC(0-24)) of 314 ng·h/mL, a Cmax ([1]; male, beagle, dog, plasma, male, 1.2 mg/kg IV infusion, Dose 1, read-out: Mean Cmax) of 108 ng/mL and a half-life ([1]; male, beagle, dog, plasma, male, 1.2 mg/kg IV infusion, Dose 1, read-out: mean terminal half-life (converted)) of 3.2 h. For the same molecule, the AUC(0-t) ([1]; male, beagle, dog, plasma, male, 1.2 mg/kg once daily, Dose 5, read-out: Mean AUC(0-24)) was 363 ng·h/mL, the Cmax ([1]; male, beagle, dog, plasma, male, 1.2 mg/kg once daily, Dose 5, read-out: mean Cmax) was 126 ng/mL and the Cmax ([1]; male, beagle, dog, plasma, male, Dose 1, 1.2 mg/kg IV once daily, mean, read-out: Cmax) was 108 ng/mL. For the same molecule, the half-life ([1]; male, beagle, dog, plasma, male, Dose 1, 1.2 mg/kg IV, harmonic mean, read-out: T1/2 (converted)) was 3.2 h, the AUC(0-t) ([1]; male, beagle, dog, plasma, male, Dose 1, 1.2 mg/kg IV, mean, read-out: AUC(0-24)) was 314 ng·h/mL and the Cmax ([1]; male, beagle, dog, plasma, male, Dose 5, 1.2 mg/kg IV once daily for 5 days, mean, read-out: Cmax) was 126 ng/mL. It also gave a half-life ([1]; male, beagle, dog, plasma, male, Dose 5, 1.2 mg/kg IV, harmonic mean, read-out: T1/2 (converted)) of 5.2 h, an AUC(0-t) ([1]; male, beagle, dog, plasma, male, Dose 5, 1.2 mg/kg IV, mean, read-out: AUC(0-24)) of 363 ng·h/mL and a half-life ([1]; male, beagle, dog, plasma, male, Dose 5, read-out: mean terminal half-life (converted)) of 5.2 h. The “% CA 3 HRS” value ([2]; CHO, 0.0016 mg/mL) was 6.0%, the “FI 3 HRS” value ([2]; CHO, 0.0016 mg/mL) was 2.0 and the “% CA 3 HRS + S9” value ([2]; CHO, 0.0016 mg/mL) was 4.5%. For the same molecule, the “FI 3 HRS + S9” value ([2]; CHO, 0.0016 mg/mL) was 1.5, the “% CA 20 HRS” value ([2]; CHO, 0.0016 mg/mL) was 4.5% and the “FI 20 HRS” value ([2]; CHO, 0.0016 mg/mL) was 1.5. The “% CA 3 HRS” value ([2]; CHO, 0.005 mg/mL) was 5.5%, the “FI 3 HRS” value ([2]; CHO, 0.005 mg/mL) was 1.8 and the “% CA 3 HRS + S9” value ([2]; CHO, 0.005 mg/mL) was 8.4%. The “FI 3 HRS + S9” value ([2]; CHO, 0.005 mg/mL) was 2.8, the “% CA 20 HRS” value ([2]; CHO, 0.005 mg/mL) was 5.0% and the “FI 20 HRS” value ([2]; CHO, 0.005 mg/mL) was 1.7. For the same molecule, the “% CA 3 HRS + S9” value ([2]; CHO, 0.016 mg/mL) was 9.0%, the “FI 3 HRS + S9” value ([2]; CHO, 0.016 mg/mL) was 2.0 and the “mutagenicity (chromosome aberrations)” value ([2]; CHO, 3 h, 3 h + S9, 20 h) was “not mutagenic”. The “% MI 3 HRS + S9” value ([2]; 0.0016 mg/mL) was 12%, the “% MI 20 HRS” value ([2]; 0.0016 mg/mL) was 8% and the “% MI” value ([2]; 0.0016 mg/mL) was 6%. For the same molecule, the “% MI 3 HRS + S9” value ([2]; 0.005 mg/mL) was 9%, the “% MI 20 HRS” value ([2]; 0.005 mg/mL) was 4% and the “% MI” value ([2]; 0.005 mg/mL) was 8%. The “% MI 3 HRS + S9” value ([2]; 0.016 mg/mL) was 1%, the “% MI 20 HRS” value ([2]; 0.016 mg/mL) was 0% and the “% MI” value ([2]; 0.016 mg/mL) was 1%. For the same molecule, the “% MI 3 HRS + S9” value ([2]; 0.05 mg/mL) was 0%, the “% MI 20 HRS” value ([2]; 0.05 mg/mL) was 0% and the “% MI” value ([2]; 0.05 mg/mL) was 0%. The “% MI 3 HRS + S9” value ([2]; 0.16 mg/mL) was 0%, the “% MI 20 HRS” value ([2]; 0.16 mg/mL) was 1% and the “% MI” value ([2]; 0.16 mg/mL) was 0%. For the same molecule, the “% MI 3 HRS + S9” value ([2]; 0.5 mg/mL) was 0%, the “% MI 20 HRS” value ([2]; 0.5 mg/mL) was 0% and the “% MI” value ([2]; 0.5 mg/mL) was 0%.

From patent publication US7507727B2, “Substituted quinobenzoxazine analogs and methods of using thereof” (Cylene Pharmaceuticals, Inc., priority 2003, dated 2009)
